Laboratory results from ChEMBL document CHEMBL5143591, “Human Neuraminidases: Structures and Stereoselective Inhibitors” (J Med Chem, 2022).

Assays:
Sialidase-4 = biological target: T1, Sialidase-4 (Homo sapiens, UniProt Q8WWR8); experiment: Inhibition of human NEU4
T1 sequence (Q8WWR8 whole entry): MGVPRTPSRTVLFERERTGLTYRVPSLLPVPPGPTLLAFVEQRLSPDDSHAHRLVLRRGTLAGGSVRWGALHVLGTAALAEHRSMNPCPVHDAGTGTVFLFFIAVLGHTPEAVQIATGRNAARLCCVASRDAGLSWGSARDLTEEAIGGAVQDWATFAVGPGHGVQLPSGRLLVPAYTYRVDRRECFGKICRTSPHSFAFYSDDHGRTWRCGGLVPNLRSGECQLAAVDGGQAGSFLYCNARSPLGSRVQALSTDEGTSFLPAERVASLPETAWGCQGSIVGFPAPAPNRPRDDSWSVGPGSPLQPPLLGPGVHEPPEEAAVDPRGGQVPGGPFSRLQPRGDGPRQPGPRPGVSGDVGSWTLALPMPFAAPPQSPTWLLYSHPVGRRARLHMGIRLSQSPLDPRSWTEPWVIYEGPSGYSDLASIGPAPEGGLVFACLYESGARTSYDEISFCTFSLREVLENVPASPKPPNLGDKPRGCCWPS

Sialidase-3 = biological target: T2, Sialidase-3 (Homo sapiens, UniProt Q9UQ49); experiment: Inhibition of human NEU3
T2 sequence (Q9UQ49 whole entry): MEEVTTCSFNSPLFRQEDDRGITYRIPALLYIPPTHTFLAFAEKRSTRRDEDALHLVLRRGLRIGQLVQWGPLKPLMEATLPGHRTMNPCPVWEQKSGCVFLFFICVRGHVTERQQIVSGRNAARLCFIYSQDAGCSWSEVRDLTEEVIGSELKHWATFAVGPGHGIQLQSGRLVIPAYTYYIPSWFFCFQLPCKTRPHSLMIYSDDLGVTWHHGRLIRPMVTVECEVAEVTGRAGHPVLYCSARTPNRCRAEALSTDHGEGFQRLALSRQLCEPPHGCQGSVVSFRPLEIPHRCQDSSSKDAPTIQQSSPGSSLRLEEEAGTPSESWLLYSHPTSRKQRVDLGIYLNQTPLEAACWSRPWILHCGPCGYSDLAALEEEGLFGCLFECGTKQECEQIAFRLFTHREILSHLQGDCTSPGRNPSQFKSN

Sialidase-1 = Sialidase-1 (Homo sapiens, UniProt Q99519); experiment: Inhibition of human NEU1

- IC50 (Sialidase-4): > 500 µM
- IC50 (Sialidase-3): > 500 µM
- IC50 (Sialidase-1): > 500 µM
Compound: CC(=O)N[C@H]1[C@H]([C@H](O)[C@H](O)CO)O[C@](O)(C(=O)O)C[C@@H]1O
